Molecules are shown by their SMILES.

One test deals with T1, GAβ-dependent amyloid fibril formation (Human Aβ1-40 + GM1-containing liposome) (Homo sapiens, UniProt P05067).
T1 construct: Human Aβ1-40 (cat. #4307-v, prepared by Peptide Institute); purchased Peptide Institute 4307-v
T1 sequence (P05067 672-711 limits assumed): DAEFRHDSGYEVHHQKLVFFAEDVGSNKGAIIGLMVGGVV
Nature of the test: Thioflavin T (ThT) assay of GAβ-dependent amyloid fibril formation (Aβ1-40 with GM1-containing liposome). The class given is biochemical. As to conditions: @25 μM; read-out: ThT Inhibitory activity (% inhibition). The procedure:
<3. Evaluation of the Compounds Based on the Inhibitory Activity Against Amyloid Fibril Formation in Thioflabin T (ThT) Assay>
Inhibitory activity against GAβ-dependent amyloid fibril formation of the above compounds 1 to 133 and 142 to 267 were evaluated in ThT assay.
(1) Preparation of Aβ Solution
Human Aβ1-40 (cat. #4307-v, prepared by Peptide Institute) was dissolved in a 0.02% ammonia solution (400 μM), and the mixture was treated in an ultracentrifuge (S110AT rotor, Hitachi) at 100,000 rpm for 3 hours. Approximately two-thirds of the upper layer of the supernatant was recovered and protein concentration was measured. The Aβ solution was aliquoted and stored at −80° C. until use, was melted immediately before use, and was diluted to 75 μM using phosphate buffer (PBS: cat. #10010, manufactured by Life Technologies).
(2) Preparation of GM1-Containing Liposome
Using a mixed solution of chloroform/methanol (1:1) as a solvent, a mixed solution of 100 mM each of cholesterol and sphingomyelin (both manufactured by Sigma-Aldrich) was prepared. To this mixed solution, GM 1 (cat. #1061, manufactured by Matreya Co.) was dissolved to make a solution of 50 mM concentration. This lipid mixed solution was aliquoted into glass test tubes and stored at −20° C. until use, was melted before use, was mixed with chloroform/methanol mixture (1:1) and mixed, and then the solvent was removed by applying nitrogen gas to the suspension. The dried lipid mixture was resuspended in PBS to be a GM1 concentration of 2.5 mM, and frozen and thawed 5 times with liquid nitrogen. The lipid suspension was centrifuged at 15,000 rpm for 10 minutes and the precipitate was resuspended in PBS to be a GM1 concentration of 2.5 mM. Using an ultrasonic crusher (XL-2000, MISONIX Co., Ltd.) equipped with a microchip, ultrasonic treatment was repeated on ice for 10 seconds until the suspension became transparent, and GM1-containing liposome was prepared. Immediately prior to use, PBS was added and diluted to a GM 1 concentration of 75 μM.
(3) Preparation of Compound Solution
Compounds 1 to 133 and 142 to 267 were prepared as 10 mM and 2 mM solution in DMSO, respectively. And each solution was diluted to 75 μM or 15 μM with PBS immediately prior to use.
(4) GAβ-Dependent Amyloid Fibril Formation
To a 96-well microplate, 5 μl each of the 75 μM Aβ solution prepared above (1), the compound solution prepared in (3) or 0.75% DMSO was mixed and incubated at room temperature for 10 minutes. Then, 5 μl each of 750 μM GM1-containing liposome prepared in (2) was added to each well and incubated at 37° C. for 18 hours.
ThT (manufactured by Sigma-Aldrich) was adjusted to 5 μM using 50 mM glycine-NaOH buffer (pH 8.5). Immediately before measurement, 10 μl from each well of (4) was transferred to a 96-well black plate. 50 μl of 5 μM ThT solution was added from each injector to each well using a multi-plate reader (ARVO-HTS, manufactured by Perkin Elmer), and then the optimal fluorescence of ThT bound to amyloid fiber (excitation wavelength 430 nm, fluorescence wavelength 490 nm) was measured.
The fluorescence intensity of ThT indicates the degree of amyloid fibrils formation. By calculating the ratio of the ThT fluorescence intensity between addition of the compound and without addition of the compound, the inhibition rate against amyloid fibril formation by the compound was calculated.
As to `COc1ccc(-c2noc([C@@H](N)Cc3c[nH]c4ccccc34)n2)cc1` [Compound 18, (S)-2-(1H-indol-3-yl)-1-{3-(4-methoxyphenyl)-1,2,4-oxadiazol-5-yl}ethan-1-amine], the inhibition at 25 µM was found to be 86%.

Take `O=C(/C=C/c1cc(Cl)cc(Cl)c1)NC(CO)c1nc(-c2ccc(C(F)(F)F)cc2)no1` (stereo not drawn) [Compound 191, (2E)-3-(3,5-dichlorophenyl)-N-(2-hydroxy-1-{3-[4-(trifluoromethyl)phenyl]-1,2,4-oxadiazol-5-yl}ethyl)prop-2-enamide]: the inhibition at 25 µM was 73%.

Take `O=C(N[C@@H](CO)c1nc(-c2ccc(O)cc2)no1)c1ccccc1` [Compound 146, N-[(1S)-2-hydroxy-1-[3-(4-hydroxy-phenyl)-1,2,4-oxadiazol-5-yl]ethyl]benzamide]: the inhibition at 25 µM came out at 87%.

Still in this test, the particulars now being: inhibition rate against amyloid fibril formation, final concentration of the compound 25 μM; read-out: Inhibitory activity ABC evaluation.
On to `CCOCCOc1ccc(C(=O)N[C@@H](CO)c2nc(-c3ccc(OC(F)(F)F)cc3)no2)cc1` [Compound 169, 4-(2-ethoxyethoxy)-N-[(1S)-2-hydroxy-1-{3-[4-(trifluoromethoxy)phenyl]-1,2,4-oxadiazol-5-yl}ethyl] benzamide], for which the inhibition at 25 µM fell in the range of 40 to 80%.

For the compound `CS(=O)(=O)Nc1ccc(-c2noc(C3CC(=O)N(c4ccc(Cl)cc4)C3)n2)cc1` (stereo not drawn) [Compound 65, N-(4-[5-{1-(4-chlorophenyl)-5-oxopyrrolidin-3-yl}-1,2,4-oxadiazol-3-yl]phenyl) methane-sulfonamide], the inhibition at 25 µM is 40 to 80%.

Take `COc1ccc(-c2noc([C@@H](N)Cc3c[nH]c4ccccc34)n2)cc1` [Compound 18, (S)-2-(1H-indol-3-yl)-1-{3-(4-methoxyphenyl)-1,2,4-oxadiazol-5-yl}ethan-1-amine]: the inhibition at 25 µM was over 80%.

`C[Si](C)(C)c1ccc(-c2noc([C@H](CO)NC(=O)c3ccc(F)cc3)n2)cc1` [Compound 224, 4-fluoro-N-[(1S)-2-hydroxy-1-{3-[4-(trimethylsilyl)phenyl]-1,2,4-oxadiazol-5-yl}ethyl]benzamide]: the inhibition at 25 µM was over 80%.

For the compound `NC(Cc1c[nH]cn1)c1nc(-c2ccc(OC(F)(F)F)cc2)no1` (stereo not drawn) [Compound 37, 2-(1H-imidazol-4-yl)-1-[3-{4-(trifluoromethoxy)phenyl}-1,2,4-oxadiazol-5-yl]ethan-1-amine], the inhibition at 25 µM is under 40%.

Take `C=C(NC(=O)c1ccc(Cl)cc1)c1nnc(-c2ccc(OC(F)(F)F)cc2)o1` [Compound 115, 4-chloro-N-(1-(5-(4-(trifluoromethoxy)phenyl)-1,3,4-oxadiazol-2-yl)vinyl)benzamide]: the inhibition at 25 µM is under 40%.

In the case of `O=C(/C=C/c1cc(Cl)cc(Cl)c1)NC(CO)c1nc(-c2ccc(C(F)(F)F)cc2)no1` (stereo not drawn) [Compound 191, (2E)-3-(3,5-dichlorophenyl)-N-(2-hydroxy-1-{3-[4-(trifluoromethyl)phenyl]-1,2,4-oxadiazol-5-yl}ethyl)prop-2-enamide], the inhibition at 25 µM lay in the range of 40 to 80%.

For `O=C(N[C@@H](CO)c1nc(-c2ccc(C(F)(F)F)cc2)no1)C1CNc2ccccc2O1` (stereo partly drawn) [Compound 192, N-[(1S)-2-hydroxy-1-{3-[4-(trifluoromethyl)phenyl]-1,2,4-oxadiazol-5-yl}ethyl]-3,4-dihydro-2H-1,4-benzoxazine-2-carboxamide], the inhibition at 25 µM was over 80%.

As for `O=C(N[C@H](CO)c1nnc(-c2ccc(OC(F)(F)F)cc2)o1)c1ccc(Cl)cc1` [Compound 107, (R)-4-chloro-N-(2-hydroxy-1-(5-(4-(trifluoro-methoxy)phenyl)-1,3,4-oxzdiazol-2-yl)ethyl)benzamide], the inhibition at 25 µM fell in the range of 40 to 80%.

`O=C(N[C@@H](CO)c1nc(-c2nc3ccc(O)cc3s2)no1)c1ccc(F)cc1` [Compound 259, 4-fluoro-N-[(1S)-2-hydroxy-1-[3-(6-hydroxy-1,3-benzothiazol-2-yl)-1,2,4-oxadiazol-5-yl]ethyl] benzamide]: the inhibition at 25 µM is 40 to 80%.

As to `COc1ccc(-c2noc(CCC(=O)Nc3cccc(Cl)c3)n2)cc1` [Compound 8, N-(3-chlorophenyl)-3-{3-(4-methoxyphenyl)-1,2,4-oxadiazol-5-yl}propanamide], the inhibition at 25 µM is under 40%.

Consider `O=C(Nc1ccc(Cl)cc1)N[C@@H](CO)c1nc(-c2ccc(OC(F)(F)F)cc2)no1` [Compound 95, (S)-1-(4-chloro-phenyl)-3-(2-hydroxy-1-[3-{4-(trifluoromethoxy)phenyl}-1,2,4-oxadiazol-5-yl]ethyl)urea], for which the inhibition at 25 µM was under 40%.

For the compound `O=C1CC(c2nc(-c3cccc(OC(F)F)c3)no2)CN1c1ccc(Cl)cc1` (stereo not drawn) [Compound 66, 1-(4-chlorophenyl)-4-[3-{3-(difluoro-methoxy)phenyl}-1,2,4-oxadiazol-5-yl]pyrrolidin-2-one], the inhibition at 25 µM fell in the range of 40 to 80%.

On to `O=C1CC(c2nnc(-c3ccc(OC(F)(F)F)cc3)[nH]2)CN1c1ccc(Cl)cc1` (stereo not drawn) [Compound 123, 1-(4-chlorophenyl)-4-{5-[4-(trifluoromethoxy)phenyl]-4H-1,2,4-triazol-3-yl}pyrrolidin-2-one], for which the inhibition at 25 µM is under 40%.

For the compound `O=C(N[C@@H](CO)c1nc(-c2ncccn2)no1)c1ccc(F)cc1` [Compound 246, 4-fluoro-N-[(1S)-2-hydroxy-1-[3-(pyrimidin-2-yl)-1,2,4-oxadiazol-5-yl]ethyl]benzamide], the inhibition at 25 µM fell in the range of 40 to 80%.

Take `O=C(NCC(CO)c1nc(-c2ccc(C(F)(F)F)cc2)no1)c1ccc(F)cc1` (stereo not drawn) [Compound 151, 4-fluoro-N-(3-hydroxy-2-{3-[4-(trifluoro-methyl)phenyl]-1,2,4-oxadiazol-5-yl}propyl)benzamide]: the inhibition at 25 µM was 40 to 80%.

`O=C(N[C@@H](CO)c1nc(-c2ccc(-n3cccn3)cc2)no1)c1ccc(F)cc1` [Compound 179, 4-fluoro-N-[(1S)-2-hydroxy-1-{3-[4-(1H-pyrazol-1-yl)phenyl]-1,2,4-oxadiazol-5-yl}ethyl]benzamide]: the inhibition at 25 µM fell in the range of 40 to 80%.

Turning to `O=C(N[C@@H](CO)c1nc(-c2ccc(O)cc2)no1)c1ccccc1` [Compound 146, N-[(1S)-2-hydroxy-1-[3-(4-hydroxy-phenyl)-1,2,4-oxadiazol-5-yl]ethyl]benzamide], the inhibition at 25 µM is over 80%.

Consider `Nc1[nH]cnc1-c1noc([C@H](CO)NC(=O)c2ccc(F)cc2)n1` [Compound 258, N-[(1S)-1-[3-(5-amino-1H-imidazol-4-yl)-1,2,4-oxadiazol-5-yl]-2-hydroxyethyl]-4-fluorobenzamide], for which the inhibition at 25 µM lay in the range of 40 to 80%.

As for `O=C(NC(CO)c1nc(-c2ccc(C(F)(F)F)cc2)no1)c1ccc(C(F)(F)F)cc1` (stereo not drawn) [Compound 188, N-(2-hydroxy-1-{3-[4-(trifluoromethyl)phenyl]-1,2,4-oxadiazol-5-yl}ethyl)-4-(trifluoromethyl) benzamide], the inhibition at 25 µM is over 80%.

`O=C(c1ccc(Cl)cn1)N1C[C@H](O)C[C@H]1c1nc(-c2ccc(OC(F)(F)F)cc2)no1` [Compound 60, (5-chloropyridin-2-yl)((2S,4R)-4-hydroxy-2-[3-{4-(trifluoro-methoxy)phenyl}-1,2,4-oxadiazol-5-yl]pyrrolidin-1-yl)methanone]: the inhibition at 25 µM was under 40%.

Turning to `O=C(NC1(c2nc(-c3ccc(OC(F)(F)F)cc3)no2)CCCC1)c1ccc(F)cc1` [Compound 30, 4-fluoro-N-(1-[3-{4-(trifluoromethoxy)phenyl}-1,2,4-oxadiazol-5-yl]cyclopentyl) benzamide], the inhibition at 25 µM is under 40%.

As for `CN(C)c1ccc(C(=O)N[C@@H](CO)c2nc(-c3ccc(C(F)(F)F)cc3)no2)cc1` [Compound 209, 4-(dimethylamino)-N-[(1S)-2-hydroxy-1-{3-[4-(trifluoromethyl)phenyl]-1,2,4-oxadiazol-5-yl}ethyl]benzamide], the inhibition at 25 µM is over 80%.

Regarding `O=C1CC(c2nnc(-c3ccc(OC(F)(F)F)cc3)o2)CN1c1ccc(Cl)cc1` (stereo not drawn) [Compound 103, 1-(4-chlorophenyl)-4-{5-[4-(trifluoromethoxy)phenyl]-1,3,4-oxadiazol-2-yl}pyrrolidin-2-one], the inhibition at 25 µM lay within 40 to 80%.
